The values below come from patent publication US10206906B2, “Synergistic combination of a phenolic-rich maple syrup extract and an antibiotic” (priority 2015, dated 2019).

Assay [1] deals with outer membrane of P. aeruginosa PAO1. The assay can be described thus: Outer membrane permeabilization, NPN uptake assay. The following applies: sub-MIC; concentration giving maximal increase in NPN uptake. Type of assay: cell-based, Pseudomonas aeruginosa. As to the method:
(§1) The cells are harvested, washed with 5 mM HEPES buffer (pH 7.2), and resuspended in the same volume (10 mL) of 5 mM HEPES buffer (pH 7.2) containing 1 mM N-ethylmaleimide (NEM, Sigma-Aldrich Canada). Aliquots (1 mL) are mixed with NPN to a final concentration of 10 μM (in cell suspension) and fluorescence is measured using the microplate reader (ex/em 350/420 nm).

Assay [2] concerns outer membrane of P. aeruginosa PA14. Briefly: Outer membrane permeabilization, NPN uptake assay. The following applies: sub-MIC; concentration giving maximal increase in NPN uptake. Type of assay: cell-based, Pseudomonas aeruginosa. The procedure:
as §1

The test system of assay [3] is outer membrane of P. mirabilis HI4320. The assay can be described thus: Outer membrane permeabilization, NPN uptake assay. The conditions noted are these: sub-MIC; concentration giving maximal increase in NPN uptake. Type of assay: cell-based, Proteus mirabilis. As to the method:
as §1

The test system of assay [4] is proton motive force-driven multidrug efflux pump of E. coli CFT073. Briefly: Ethidium bromide (EtBr) efflux assay. Type of assay: cell-based, Escherichia coli. The conditions noted are these: PRMSE, catechol at 0.25 times the MIC; CCCP 100 μM; untreated cells 36.9. The procedure:
An overnight grown culture of each strain is diluted 1:100 using MHB-II broth to a final volume of 10 mL and grown to an OD600 of 0.8-1.0 (at 37° C., 150 rpm). […] The tubes are incubated for 1 h (37° C., 150 rpm). The inoculum is then adjusted to 0.4 OD600 with MHB-II broth containing 5 μM EtBr and 2 mL aliquots of this mixture are pelleted (5000×g, 10 min at 4° C.). The pellets are incubated on ice immediately, resuspended in 1 mL of MHB-II, and aliquoted (200 μL) into a polystyrene 96 well black, clear-bottom plate (Corning™, Fisher Scientific, ON, Canada). EtBr efflux from the cells is monitored at room temperature using the microplate reader (ex/em 530/600 nm). Readings are taken at 5 min intervals for 1 h to monitor efflux pump activity. The background fluorescence of the medium is subtracted from all measurements and the assay is repeated independently in triplicate.

Assay [5] relates to cell membrane of P. mirabilis HI4320. Briefly: BacLight membrane integrity assay. Type of assay: cell-based, Proteus mirabilis. The conditions noted are these: PRMSE, catechol at 4 × MIC for 10 min; CTAB 10 μM; untreated = 100. The procedure:
The BacLight kit (L-13152, Invitrogen™, Life Technologies Inc., Canada) is used to assess cell membrane damage. Overnight bacterial cultures are diluted 1:40 in fresh MHBII broth to a final volume of 5 mL, grown to an OD600 of 0.5-0.6, washed with filter-sterilized 10 mM phosphate buffered saline (PBS, pH 7.0) and resuspended in 1/10 of the original volume. […] Cultures are incubated at room temperature (21±2° C.) on a tube rocker for 10 min. At the end of the incubation period, an aliquot is taken for CFU counts and the remaining suspension is washed with 10 mM PBS and resuspended to an OD600) of 0.3. An aliquot (100 μL) of each bacterial suspension is removed and added to a 96-well, black, clear-bottom plate (Corning™, Fisher Scientific, ON, Canada) along with an equal volume of the BacLight™ reagent (2× stock solution, L13152, Invitrogen™, Life Technologies Inc., Canada) and the plates are incubated for 10 min at room temperature in the dark. At the end of the incubation period, fluorescence intensity is recorded for both kit components, SYTO-9 (ex/em 485/530 nm) and propidium iodide (ex/em 485/645 nm), using the microplate reader. Fluorescence readings from samples are normalized to the values obtained from untreated control to determine the ratio of membrane compromised cells to cells with intact membrane. […]

Molecules are shown by their SMILES.

Consider `Oc1ccccc1O` [catechol, 1,2-dihydroxybenzene], for which the Minimum permeabilization concentration was determined as 0.5 mg/mL in assay [1], 0.5 mg/mL in assay [2] and 1 mg/mL in assay [3]. In assay [4], this compound showed an Efflux pump activity of 34.3%. Also, in assay [5], the “% cells with uncompromised membrane” value is given as 50.3%.
